# From paper PMC7136958, “Targeting the pregnane X receptor using microbial metabolite mimicry” (EMBO Molecular Medicine, 2020)
# “And” between values parts separate entries of the source, which are not always exact repeats. Equal values may be shown once.
# Columns and labels:
# FXR = target: T1, FXR (Homo sapiens, UniProt Q96RI1); assay: hFXR TR-FRET (LanthaScreen FXR Coactivator Assay); type: biochemical; conditions: 1 nM to 25 µM
# T1 construct: purchased Invitrogen PV4833
# Protocol: volume of 20 µl in 384-well black plates, with concentrations of tested compounds in the range from 1
# nm, on Infinite F200 microplate reader (Tecan Group Ltd, Switzerland).
# All experiments were done in tetraplicates and as two independent experiments. Final EC50 values were obtained by processing the data with GraphPad Prism 6 using standard curve interpolation (sigmoidal, 4PL, variable slope).
# [1] = system: IL-8 mRNA in Caco-2 cells; assay: IL-8 mRNA in Caco-2 monolayers exposed to cytokine cocktail; type: cell-based, human; design: key to IL8 mRNA: relative IL-8 mRNA level, normalized to GAPDH; conditions: for IL8 mRNA: Caco-2 cells, triplicate
# Protocol: Caco‐2 cell (ATCC, Manassas, VA) passages 25–35 were maintained and expanded in culture flasks in Dulbecco's modified Eagle's medium (DMEM) with 10% FBS and 1× antibiotic–antimycotic. The cells were kept in a humidified 37°C incubator with 5% CO2. Media were changed every 2–3 days, and cells were passaged 1–2 times a week. For all experiments, Caco‐2 cells (5 × 10^4 cells/ml) were seeded into 12‐well Transwell inserts or coverslips and cultured for 3 weeks. HIOs were generated from iPSCs as described previously (Spence et al, 2011), with some modifications. The iPSC cell line IISH1i‐BM1 (WiCell, Madison, WI) was cultured on Matrigel plates to 80% confluence in mTeSR™ 1 medium (Stem Cell Technologies, Seattle, WA) and differentiated to endoderm using Definitive Endoderm Kit (Stem Cell Technologies., Seattle, WA) for 4 days with daily media changes. Endoderm was then differentiated to hindgut for 5 days with the addition of FGF‐4 (500 ng/ml; Peprotech, Rocky Hill, NJ) and Chir99021 (3 μM; Cayman, Ann Arbor, MI) in RPMI media supplemented with 2% FBS. Floating hindgut spheroids were collected on days 3–5 of hindgut differentiation and suspended in Matrigel beads for HIO differentiation. HIOs were maintained in WENRAS media (Fujii et al, 2015), which maintains proliferation in the culture. Stock HIOs were passaged weekly by removing Matrigel with Cell Recovery Solution (Corning, NY) and mechanically breaking up organoids with pipetting. HIOs were seeded into new Matrigel beads at a 1:3 split, using WENRAS with added Rock Inhibitor Y‐27632 (10 μM) and Chir99021 (3 μM; Cayman., Ann Arbor, MI) for the first 2 days of culture.
# Relative mRNA levels of IL‐8 and IL‐6 were determined using quantitative real‐time PCR, with normalization to GAPDH. RNA was isolated using an RNeasy Mini Kit (Qiagen) as per the manufacturer's instructions. On column DNase (Qiagen) was used to remove any contaminating DNA. Next, cDNA was formed using iScript cDNA Synthesis Kit (Bio‐Rad) and 100 ng RNA. qRT–PCR was performed with SsoAdvanced Universal SYBR Green Kit (Bio‐Rad). The following primers were used: IL‐8 Forward: […]; IL‐8 Reverse: […]; IL‐6 Forward: […]; IL‐6 Reverse: […]; GAPDH Forward: […]; GAPDH Reverse: […]. For immunofluorescent staining of NF‐ĸB translocation to the cell nucleus, HIOs and Caco‐2 cell monolayers were fixed in 4% formaldehyde (in 1 × PBS) overnight at 4°C. The formaldehyde was removed by washing with 1 × PBS, and an antigen retrieval step was performed by incubating in 10 mM sodium citrate buffer in a vegetable steamer for 20 min. The samples were then blocked with normal donkey serum (10% in PBS with 0.3% Triton X‐100) for 1 h. Samples were incubated overnight with primary antibodies: rabbit anti‐NF‐κB p65 (D14E12 # 8242, 1:400 dilution, Cell Signaling Technology, Danvers MA), then immersed in Alexa Fluor® 555 donkey anti‐rabbit secondary antibody (A‐31572, Life Technologies) at a 1:500 dilution. Nuclei were stained with Hoechst 33342 (Life Technologies). The samples were then imaged using a Zeiss LSM880 Confocal/Multiphoton Upright Microscope, with 3‐D image rendering using Volocity. For controls, normal rabbit IgG (#2729S, Life Technologies) was used.
# hPXR = target: T2, hPXR (Homo sapiens, UniProt O75469); assay: biochemical
# T2 sequence (O75469 111-434 limits assumed): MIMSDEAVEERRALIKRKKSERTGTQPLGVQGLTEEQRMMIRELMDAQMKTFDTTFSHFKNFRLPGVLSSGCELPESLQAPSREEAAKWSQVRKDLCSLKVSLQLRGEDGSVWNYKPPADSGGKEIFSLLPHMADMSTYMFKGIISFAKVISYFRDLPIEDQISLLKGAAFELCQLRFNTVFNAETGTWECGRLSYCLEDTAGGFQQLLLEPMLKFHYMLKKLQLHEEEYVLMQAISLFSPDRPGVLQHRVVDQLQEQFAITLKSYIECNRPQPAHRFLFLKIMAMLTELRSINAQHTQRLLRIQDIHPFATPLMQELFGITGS
# Protocol: All PXR‐binding assays were performed as two independent experiments, each with a minimum of four replicates. Final IC50 was obtained by processing the data with GraphPad Prism 6 using standard curve interpolation (sigmoidal, 4PL, variable slope).
# [2] = system: ABCC2, UGT1A1, ABCB1, CYP3A4, GSTA1 mRNA; assay: PXR target gene mRNA in human duodenal enteroids; conditions: for ABCB1 (MDR1) mRNA fold change, Mean / ABCC2 mRNA fold change, Mean / CYP3A4 mRNA fold change, Mean / GSTA1 mRNA fold change, Mean / UGT1A1 mRNA fold change, Mean: 10 μM, 24 h, n=3
# Protocol: Discarded duodenum tissue after surgery was obtained and used to isolate crypts. Embedded crypts in Matrigel formed 3D structures referred to as “enteroids”. […] DMSO was added to enteroids as a negative control. After incubation for 24 h, enteroids were collected in RNA‐free tube followed by breaking down Matrigel by pipetting vigorously (using 1 ml PBS). The enteroids were pelleted at 16,000 g for 3 min (4°C). RNA was extracted using miRNA isolation kit (Invitrogen; #AM1561) using the protocol provided by Invitrogen. […] PowerUp SYBR Green (Applied Biosystem, #A25742) was used for RT–PCR and performed 40 cycles using Quant Studio3 (Invitrogen, #A28132).
# [3] = system: PXR occupancy of CYP3A4 and MDR1 promoter; assay: Chromatin immunoprecipitation (ChIP) in PXR-transfected LS174T cells; conditions: 10 μM
# Protocol: LS174T cells were transfected with pSG5‐PXR (2 μg/plate/1 × 10^7 cells). […] Briefly, cells were chemically cross‐linked with formaldehyde in culture media for 15 min at room temperature. […] Cells were rinsed twice with cold PBS (phosphate‐buffered saline) (pH 7.5) and scraped in PBS supplemented with PIC (protease inhibitor cocktail).
# Cell pellets were collected and immediately resuspended in immunoprecipitation (IP) buffer (150 mM NaCl (sodium chloride), 50 mM Tris–HCl at pH 7.5, 5 mM EDTA (ethylenediaminetetraacetic acid), 0.5% NP‐40, 1% Triton X‐100). The nuclei were centrifuged at 12,000 × g for 1 min and resuspended in fresh IP buffer. Chromatin was sheared by sonication to an average size of 0.2‐0.9 kb. Lysates were cleared by centrifugation at 12,000 × g for 10 min. […] 10% (wt/vol) Chelex 100 was added to the beads followed by boiling of the suspension and centrifugation at 12,000 × g for 1 min to obtain chromatin.
# Purified chromatin DNA was used to perform RT–qPCR. […] Data were analyzed using SDS 2.2.1 program (ABI Biotechnology).
# [4] = system: CYP1A1, CYP3A4, MDR1 mRNA in primary human hepatocytes; assay: qRT-PCR of CYP1A1, CYP3A4, MDR1 mRNA in primary human hepatocytes (four donors); conditions: for CYP1A1 mRNA fold to C / CYP3A4 mRNA fold to C / MDR-1 mRNA fold to C: primary human hepatocytes donor Hep200538, fold to UT control; for CYP1A1 mRNA fold to C / CYP3A4 mRNA fold to C / MDR-1 mRNA fold to C / CYP1A1 (1A1) mRNA, fold to C / CYP3A4 (3A4) mRNA, fold to C / MDR1 mRNA fold to C / MDR-1 mRNA, fold to C: normalised to GAPDH; for CYP1A1 (1A1) mRNA, fold to C / CYP3A4 (3A4) mRNA, fold to C / MDR1 mRNA fold to C / MDR-1 mRNA, fold to C: primary human hepatocytes, fold vs untreated (UT)
# Protocol: Cells or primary human hepatocytes from four different donors (HEP200529, HEP220932, HEP200533, and HEP200538) were incubated for 24 h with test compounds; the vehicle was DMSO (0.1% v/v). Total RNA was isolated using TRI Reagent® (Molecular Research Center, Ohio, USA). cDNA was synthesized from 1,000 ng of total RNA using M‐MuLV Reverse Transcriptase (New England Biolabs, Ipswich, Massachusetts, USA) at 42°C for 60 min in the presence of random hexamers (New England Biolabs). Quantitative reverse transcriptase–polymerase chain reaction (qRT–PCR) was performed using LightCycler® 480 Probes Master on a LightCycler® 480 II apparatus (Roche Diagnostic Corporation).
# The following protocol was used: An activation step at 95°C for 10 min was followed by 45 cycles of PCR (denaturation at 95°C for 10 s; annealing with elongation at 60°C for 30 s). The measurements were performed in triplicate. Gene expression was normalized per GAPDH as a housekeeping gene. […] Data are expressed as fold induction ± SD over the vehicle‐treated cells. The bar graph depicts one representative experiment of a series of experiments performed in three consecutive passages of cells. Differences were tested using one‐way ANOVA with Dunnett's post hoc test, and P < 0.05 was considered significant.
# [5] = compound 25µm, no cytokines, 2 hr
# [6] = cytokines + compound 10µm, 2 hr
# T1 sequence (Q96RI1 211-486 limits assumed): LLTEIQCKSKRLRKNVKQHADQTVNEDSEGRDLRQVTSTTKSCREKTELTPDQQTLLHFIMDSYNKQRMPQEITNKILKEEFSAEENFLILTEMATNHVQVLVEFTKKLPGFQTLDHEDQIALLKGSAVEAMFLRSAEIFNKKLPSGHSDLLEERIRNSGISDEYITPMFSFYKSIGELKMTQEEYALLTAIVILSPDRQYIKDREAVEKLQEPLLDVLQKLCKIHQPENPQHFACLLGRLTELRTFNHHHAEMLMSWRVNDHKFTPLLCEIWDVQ
SMILES,FXR ligand agonist activity (FXR),"IL8 mRNA [1, 5]","IL8 mRNA [1, 6]",IC50 (hPXR),PXR target gene induction (in words) [2],"ABCB1 (MDR1) mRNA fold change, Mean [2]","ABCC2 mRNA fold change, Mean [2]","CYP3A4 mRNA fold change, Mean [2]","GSTA1 mRNA fold change, Mean [2]","UGT1A1 mRNA fold change, Mean [2]",CYP1A1 mRNA induction ([4]; four donors),CYP1A1 mRNA fold to C [4],CYP3A4 mRNA fold to C [4],MDR-1 mRNA fold to C [4],"CYP1A1 (1A1) mRNA, fold to C ([4]; donor Hep200529)","CYP3A4 (3A4) mRNA, fold to C ([4]; donor Hep200529)",MDR1 mRNA fold to C ([4]; donor Hep200529),"CYP1A1 (1A1) mRNA, fold to C ([4]; donor Hep200533)","CYP3A4 (3A4) mRNA, fold to C ([4]; donor Hep200533)","MDR-1 mRNA, fold to C ([4]; donor Hep200533)",other results
"O=C(c1ccncc1)c1cc2ccccc2n1S(=O)(=O)c1ccccc1 [FKK5, (1-(phenylsulfonyl)-1H-indol-2-yl)(pyridin-4-yl)methanone]",did not observe any significant ligand agonist activity,11.5603 and 13.1808 and 10.1297,168.69 and 99.441 and 183.41,3770 nM,significantly induced,2.409 fold,4.345 fold,2.034 fold,4.61 fold,1.773 fold,did not,1.13,0.84,0.52,1.12 fold,0.73 fold,0.93 fold,1.51 fold,1.03 fold,1.05 fold,"IL8 mRNA ([1]; cytokines + compound 25µm, 2 hr): 36.3596 and 45.4346 and 54.4045; IL8 mRNA ([1]; cytokines + compound 25µm, 12 hr): 434.784 and 305.562 and 246.223; MDR1 Fold Expression (2-ΔΔCt) ([3]; relative to DMSO = 1, each column a repeat experiment (Fig 1d)): 3.894 and 3.803 and 2.576 and 4.071; CYP1A1 (1A1) mRNA, fold to C ([4]; donor Hep220932): 0.39 fold; CYP3A4 (3A4) mRNA, fold to C ([4]; donor Hep220932): 0.50 fold; MDR-1 mRNA, fold to C ([4]; donor Hep220932): 0.35 fold"
C#CCC(O)(c1ccncc1)c1cc2ccccc2n1S(=O)(=O)c1ccccc1 (centres unmarked) [FKK6],did not observe any significant ligand agonist activity,55.8723 and 30.5592 and 31.4544,40.0864 and 49.4401 and 49.4954,1560 nM and ~1560 nM,significantly induced,3.883 fold,4.029 fold,1.665 fold,1.768 fold,2.472 fold,did not,15.94,6.17,0.95,6.44 fold,2.67 fold,1.52 fold,3.26 fold,2.13 fold,2.03 fold,"cytokine-induced IL-8 mRNA ([1]; 25 μM): significantly reduced; IL8 mRNA ([1]; compound 10µm, no cytokines, 2 hr): 2.554 and 1.974 and 1.5894; IL8 mRNA ([1]; compound 10µm, no cytokines, 12 hr): 7.6 and 8.533 and 8.223; IL8 mRNA ([1]; cytokines + compound 10µm, 12 hr): 83.1628 and 71.3481 and 97.9287; PXR occupancy of proximal CYP3A4 and MDR1 promoter (semi-quantitative ChIP) [3]: augmented PXR occupancy; CYP3A4 mRNA induction ([4]; four donors): more than twofold induction in one of four hepatocyte samples; MDR1 mRNA induction ([4]; four donors): MDR1 mRNA induction in one of four hepatocyte samples; CYP1A1 (1A1) mRNA, fold to C ([4]; donor Hep220932): 0.76 fold; CYP3A4 (3A4) mRNA, fold to C ([4]; donor Hep220932): 0.97 fold; MDR-1 mRNA, fold to C ([4]; donor Hep220932): 0.40 fold"
